Results as given in patent US10640457B2, “Histone acetyltransferase activators and uses thereof” (The Trustees of Columbia University in the City of New York, priority 2009, dated 2020).
pIC50: −log10 of the molar value. Where “and” joins values, the source holds several entries; their conditions need not be identical. Equal values may be shown once. Entries after “also recorded” stand apart in the source; their conditions may differ.

What was measured:
HDAC6 = target: T1, HDAC6 (Homo sapiens, UniProt Q9UBN7); experiment: HDAC6 fluorogenic activity assay; settings: for % Activity: Repeat1/Repeat2, listed as OA2
T1 sequence (Q9UBN7 1-1215): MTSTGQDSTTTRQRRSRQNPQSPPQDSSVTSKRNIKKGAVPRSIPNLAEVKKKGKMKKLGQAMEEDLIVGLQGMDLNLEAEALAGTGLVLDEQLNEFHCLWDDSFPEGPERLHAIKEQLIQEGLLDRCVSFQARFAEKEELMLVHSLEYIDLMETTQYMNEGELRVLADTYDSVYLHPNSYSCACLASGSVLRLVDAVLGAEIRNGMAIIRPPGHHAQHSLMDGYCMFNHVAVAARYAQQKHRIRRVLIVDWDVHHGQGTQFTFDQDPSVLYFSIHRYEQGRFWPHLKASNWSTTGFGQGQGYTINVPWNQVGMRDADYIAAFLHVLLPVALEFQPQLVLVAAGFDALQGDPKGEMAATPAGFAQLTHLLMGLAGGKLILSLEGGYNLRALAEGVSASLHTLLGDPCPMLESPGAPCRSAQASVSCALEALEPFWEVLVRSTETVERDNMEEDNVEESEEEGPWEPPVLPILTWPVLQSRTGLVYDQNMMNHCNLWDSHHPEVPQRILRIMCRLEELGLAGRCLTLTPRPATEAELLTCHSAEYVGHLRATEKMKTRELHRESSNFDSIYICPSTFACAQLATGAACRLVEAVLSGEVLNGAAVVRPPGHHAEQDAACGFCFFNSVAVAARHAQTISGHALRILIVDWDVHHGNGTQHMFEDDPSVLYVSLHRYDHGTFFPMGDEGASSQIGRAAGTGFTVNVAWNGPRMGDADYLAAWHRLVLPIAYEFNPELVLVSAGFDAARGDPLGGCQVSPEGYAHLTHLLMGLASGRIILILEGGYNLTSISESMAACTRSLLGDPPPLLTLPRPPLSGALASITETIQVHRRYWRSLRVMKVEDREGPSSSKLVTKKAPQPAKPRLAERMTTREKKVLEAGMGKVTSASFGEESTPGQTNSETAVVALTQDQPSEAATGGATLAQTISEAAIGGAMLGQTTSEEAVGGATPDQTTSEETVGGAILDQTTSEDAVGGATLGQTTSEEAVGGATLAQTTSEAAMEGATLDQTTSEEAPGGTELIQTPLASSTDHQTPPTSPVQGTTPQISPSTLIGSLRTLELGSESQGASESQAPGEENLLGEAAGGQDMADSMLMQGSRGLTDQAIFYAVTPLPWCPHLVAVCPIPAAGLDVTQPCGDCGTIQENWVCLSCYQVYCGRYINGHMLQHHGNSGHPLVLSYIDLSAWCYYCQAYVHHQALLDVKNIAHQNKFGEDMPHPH

HDAC10 = target: T2, HDAC10 (Homo sapiens, UniProt Q969S8); experiment: HDAC10 fluorogenic activity assay; settings: for % Activity: Repeat1/Repeat2, listed as OA2
T2 sequence (Q969S8 1-669): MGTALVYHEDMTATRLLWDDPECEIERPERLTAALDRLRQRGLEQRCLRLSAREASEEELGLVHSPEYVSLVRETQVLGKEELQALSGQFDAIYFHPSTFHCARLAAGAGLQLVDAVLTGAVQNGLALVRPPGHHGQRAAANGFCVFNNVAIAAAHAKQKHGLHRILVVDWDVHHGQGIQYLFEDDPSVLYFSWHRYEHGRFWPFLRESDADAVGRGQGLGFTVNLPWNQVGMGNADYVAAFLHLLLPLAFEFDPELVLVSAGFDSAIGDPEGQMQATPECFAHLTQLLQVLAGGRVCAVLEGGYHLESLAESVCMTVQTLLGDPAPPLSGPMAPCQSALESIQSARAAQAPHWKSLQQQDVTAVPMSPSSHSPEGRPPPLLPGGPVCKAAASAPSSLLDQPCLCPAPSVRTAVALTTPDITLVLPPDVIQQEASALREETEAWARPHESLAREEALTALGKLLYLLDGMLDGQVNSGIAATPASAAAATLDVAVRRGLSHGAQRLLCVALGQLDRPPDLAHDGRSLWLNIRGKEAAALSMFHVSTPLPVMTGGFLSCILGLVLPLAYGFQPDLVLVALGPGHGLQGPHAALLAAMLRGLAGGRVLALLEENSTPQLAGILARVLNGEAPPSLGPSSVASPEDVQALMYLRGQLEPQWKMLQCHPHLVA

APP/PS1 mice = experiment: RAWM and fear conditioning in APP/PS1 mice (YF2); format: in vivo
Description: Without being bound by theory, given that these experiments were obtained with a synthetic preparation of Aβ42, it is difficult to know if this is the same as Aβ that causes synaptic dysfunction in AD brains. Thus, we validated these experiments in an Aβ-depositing mouse model, the APP/PS1 mouse^[P35] (herein incorporated by reference in its entirety). These mice have been well characterized with respect to AD pathology^[P34-38] (each herein incorporated by reference in its entirety). They start to show synaptic and memory impairment as early as 3 months of age^[P34] (herein incorporated by reference in its entirety). Transgenic mice with a double mutation APP […]/PS1(M146L) (line 6.2) start to develop large plaques in cortex and hippocampus at the age of 8-10 weeks. They have a reduction in LTP by 3 months of age together with impairment of contextual fear memory and spatial working memory.

In the case of `CCOc1cccc(OCCN(C)C)c1C(=O)Nc1ccc(Cl)c(C(F)(F)F)c1` [YF2], the pIC50 (HDAC6) was < 3.70, the “% Activity” value (HDAC6; OA2 Log[nM] 0.5) was 104.75% and 106.28% and the “% Activity” value (HDAC6; OA2 Log[nM] 1.0) was 106.10% and 100.51%. For the same molecule, the “% Activity” value (HDAC6; OA2 Log[nM] 1.5) was 96.75% and 108.50%, the “% Activity” value (HDAC6; OA2 Log[nM] 2.0) was 100.33% and 105.31% and the “% Activity” value (HDAC6; OA2 Log[nM] 2.5) was 99.30% and 99.28%. The “% Activity” value (HDAC6; OA2 Log[nM] 3.0) was 100.06% and 94.62%, the “% Activity” value (HDAC6; OA2 Log[nM] 3.5) was 96.79% and 97.61% and the “% Activity” value (HDAC6; OA2 Log[nM] 4.0) was 94.62% and 100.10%. The “% Activity” value (HDAC6; OA2 Log[nM] 4.5) was 79.13% and 87.65%, the “% Activity” value (HDAC6; OA2 Log[nM] 5.3) was 70.40% and 102.77% and the pIC50 (HDAC10) was < 3.70. The “% Activity” value (HDAC10; OA2 Log[nM] 0.5) was 91.08% and 101.05%, the “% Activity” value (HDAC10; OA2 Log[nM] 1.0) was 103.77% and 104.31% and the “% Activity” value (HDAC10; OA2 Log[nM] 1.5) was 105.57% and 103.85%. For the same molecule, the “% Activity” value (HDAC10; OA2 Log[nM] 2.0) was 103.04% and 105.77%, the “% Activity” value (HDAC10; OA2 Log[nM] 2.5) was 104.90% and 105.64% and the “% Activity” value (HDAC10; OA2 Log[nM] 3.0) was 99.94% and 104.64%. For the same molecule, the “% Activity” value (HDAC10; OA2 Log[nM] 3.5) was 96.95% and 106.25%, the “% Activity” value (HDAC10; OA2 Log[nM] 4.0) was 96.50% and 102.89% and the “% Activity” value (HDAC10; OA2 Log[nM] 4.5) was 95.38% and 102.89%. The “% Activity” value (HDAC10; OA2 Log[nM] 5.3) was 116.56% and 86.05%, the “reference memory defect (RAWM)” value (APP/PS1 mice; APP/PS1 mice, 20 mg/Kg i.p. 30 min before 1st and 2nd group of tests, 20 mg/kg) was “ameliorates; also recorded: rescued” and the “contextual fear memory deficit” value (APP/PS1 mice; APP/PS1 mice, 20 mg/Kg i.p. 30 min before training for FC, 20 mg/kg) was “ameliorates”. The “memory in WT mice” value (APP/PS1 mice; WT littermates, 20 mg/Kg i.p.) was “without affecting”.
